What all share (experiment): DTP human tumour cell line panel, 48 h
In test [1] the test system is HCT-116 colon.
Test [2] relates to SN12C renal.
For test [3], the system named is COLO 205 colon.
In test [4] the test system is T-47D breast.
Test [5] deals with NCI-H226 lung.
Test [6] concerns SF-295 CNS.
In test [7] the test system is 786-0 renal.
Test [8] concerns SK-MEL-2 melanoma.
Test [9] concerns UACC-257 melanoma.
The subject of test [10] is MCF7 breast.

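Compound exposure: 48 hours, 5 concentrations, 96-well plates. TGI: total growth inhibition.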

For orientation: TGI means the concentration giving total growth inhibition. For `CNc1[nH]c(=S)nc2sc3c(c12)CCCC3`, the TGI in test [1], in [2], in test [3], in test [4], in test [5] and in test [6] was over 75 µM throughout. Further, the TGI in test [7], in test [8], in [9] and in [10] was over 75 µM throughout.
Regarding `Cc1c2c(c(C)n1-c1ccccc1)C(=O)N(CCN1CCN(c3cccc(C(F)(F)F)c3)CC1)C2=O`, the TGI in test [1], in [2], in test [3], in test [4], in test [5] and in test [6] was over 100 µM in each case. Besides, the TGI in test [7], in test [8], in [9] and in test [10] was over 100 µM each time.
On to `COC(=O)c1ccccc1CC1Cc2cccc(C)c2C1=O` (stereo not given), for which the TGI in test [1] was over 100 µM; in [2], over 100 µM; in test [3], 39.3 µM; in test [4] it was 82.7 µM; in test [5], 71.5 µM; in [6] it was over 100 µM. Also, the TGI in [7] is over 100 µM; in [8] it was 53.2 µM; in [9], 73.3 µM; in test [10], 56.1 µM.
In the case of `O=[N+]([O-])c1cc2oc(CSc3ccccc3)nc2cc1Cl`, the TGI in test [1] was over 100 µM; in [2], over 100 µM; in test [3] it was 44.9 µM; in [4], over 100 µM; in test [5], 91.1 µM; in test [6] it was 93.9 µM. In addition, the TGI is over 100 µM in test [7], 51.4 µM in test [8], 82.2 µM in test [9] and over 100 µM in test [10].
Turning to `CSc1nc2c(c(N(C)C)n1)C(O)n1c(nc3ccccc31)S2` (stereo not given), the TGI is over 62.1 µM in test [1]; over 100 µM in test [2]; over 100 µM in test [3]; over 85.3 µM in test [4]; over 100 µM in test [5]; over 100 µM in test [6]. For the same compound, the TGI in test [7], in test [8], in test [9] and in [10] was over 100 µM throughout.
As for `Cc1nc2ccccc2c(-n2cccn2)c1CCn1cccn1`, the TGI in test [1], in test [2], in test [3], in test [4], in test [5] and in [6] was over 100 µM throughout. The TGI in [7], in test [8], in test [9] and in test [10] was over 100 µM each time.
Turning to `CC(C)N1CCN(c2ccc(OCC3COC(Cn4cncn4)(c4ccc(Cl)cc4Cl)O3)cc2)CC1` (stereo not given), the TGI in [1] was found to be 23.4 µM; in test [2], 30.7 µM; in test [3], 3.69 µM; in test [4], 47.8 µM; in test [5] it was 30.1 µM; in test [6] it was 26.6 µM. Further, the TGI in test [7] stood at 14.5 µM; in test [8], 30.5 µM; in test [9] it was 3.77 µM; in test [10], 28.9 µM.
As to `Cc1cc(OP2(=O)NCc3ncccc3O2)ccc1Cl` (stereo not given), the TGI in [1], in [2], in [3], in test [4], in test [5] and in test [6] was over 100 µM each time. For the same compound, the TGI in test [7], in [8], in test [9] and in test [10] was over 100 µM throughout.
Consider `CC12c3c4ccc(C=O)c3Oc3ccc(C=O)c(c31)Oc1ccc(C=O)c(c12)O4`, for which the TGI in test [1], in [2], in test [3], in test [4], in [5] and in test [6] was over 25 µM each time. Also, the TGI in test [7], in [8], in test [9] and in [10] was over 25 µM each time.
On to `O=C(CC(=O)Nc1ccccc1)NNC(Sc1ccccc1)c1cc(N=Nc2ccc(Br)cc2)ccc1O` (stereo not given), for which the TGI in test [1] is 2.81 µM; in test [2] it was over 10 µM; in [3] it was over 10 µM; in [4], over 10 µM; in test [5], 5.04 µM; in [6], over 10 µM. The TGI in test [7], in test [8], in test [9] and in test [10] was over 10 µM throughout.
On to `CCCCOCCOC1=C(Cl)C(=O)c2c(O)ccc(O)c2C1=O`, for which the TGI in test [1] is 0.841 µM; in test [2], 1.59 µM; in [3], 0.397 µM; in [4], 4.07 µM; in [5], 4.63 µM; in test [6], 2.91 µM. The TGI in [7] was 0.505 µM; in test [8] it was 2.78 µM; in test [9], 1.15 µM; in test [10] it was 2.04 µM.
Turning to `COc1cc(O)c2c(=O)c(OC)c(-c3ccc(OC)c(O)c3)oc2c1`, the TGI in test [1], in test [2], in test [3], in test [4], in test [5] and in test [6] was over 100 µM in each case. Further, the TGI in [7], in test [8], in test [9] and in test [10] was over 100 µM in each case.
Turning to `COc1cc(Nc2ccc3c(c2)CCC3)nc(OC)n1`, the TGI in test [1], in test [2], in test [3], in test [4], in [5] and in [6] was over 100 µM in each case. In addition, the TGI in test [7], in test [8], in [9] and in test [10] was over 100 µM in each case.

These data come from PubChem BioAssay (NCI).
